Results on 2 compounds are retold here after patent US12036212B2, “Enhancement of tumor response to chemotherapy by activation of the asmase/ceramide pathway through timed administration of a short-acting anti-angiogenic agent” (Memorial Sloan-Kettering Cancer Center, priority 2014, dated 2024).

For experiment [1], the system named is ASMase. The experiment can be described thus: ASMase activity radioenzymatic assay in BAEC. It counts as cell-based, bovine. The method, then:
(§1) BAEC were established from the intima of bovine aorta as described^1. Stock cultures were grown in 100-mm dishes in Dulbecco's modified Eagle's medium (DMEM) supplemented with glucose (1 g/liter), 5% heat-inactivated calf serum (CS), penicillin (50 units/ml), and streptomycin (50 μg/ml). Purified human recombinant bFGF (1 ng/ml; R&D Systems, Inc., Minneapolis, MN) was added every other day during the exponential growth phase. […] These plateau phase cells were either used for experiments, or further sub-cultured (up to a maximum of 10 times) at a split ratio of 1:8. For sub-culturing, monolayers were dissociated with STV (0.05% trypsin and 0.02% EDTA in PBS) for 2-3 min at 22° C., washed twice in 5% CS-DMEM, and resuspended in DMEM with supplements as above. These mild conditions of trypsinization were sufficient to detach cells but not injure, stimulate, or affect cell function in a detectable way. BAEC were maintained at 37° C. in 10% CO2 humidified incubators.
ASMase activity was quantified by radioenzymatic assay using [^14C-methylcholine]sphingomyelin (Amersham) as substrate as described (Schissel et al. J Biol Chem, 271, 18431-18436, 1996). Cell lysates were incubated with [^14C-methylcholine]-sphingomyelin substrate (0.026 mCi/9.5 nmol) in 250 mM sodium acetate, pH 5.0 supplemented with 0.1% Triton X-100 and 1 mM EDTA or 0.1 mM ZnCl. Reactions were terminated after 1 h with CHCl3:MeOH:1N HCl (100:100:1, v/v/v), and [^14C-methylcholine]phosphocholine product in the aqueous layer of the Folch extract was quantified using a Beckman Packard 2200 CA Tricarb scintillation counter. For detection of ASMase activity in patients, 10 μl of serum was used.
To test the effect of chemotherapy on ASMase signaling and ceramide production, BAEC were treated with paclitaxel (100 nM) and ASMase activity was determined by radioenzymatic assay (Rotolo et al, infra) using [^14C-methylcholine] sphingomyelin (Amersham) as substrate (FIG. 1A). Induction of ASMase activity was observed within 5 minutes after treatment, and the activation continued for 30 minutes. Ceramide generation was monitored using the diacylglycerol kinase assay (Stancevic et al. PLoS ONE 8, e69025, 2013). […] In further support of this, pre-incubation of BAEC with nystatin prior to treatment with chemotherapy inhibits chemotherapy-induced apoptosis (FIG. 3).
To determine the generality of the results observed, experiments were carried out using an additional endothelial cell line, human coronary artery endothelial cells (HCAEC); experiments were also performed using a different chemotherapeutic agent. […] Next, HCAEC were treated with paclitaxel (100 nM) (data not shown) and etoposide (50 μM) (FIG. 1F), and ceramide generation was evaluated.
To further establish the generality of ASMase activation by various chemotherapeutic agents, BAEC and HCAEC were treated with increasing doses of cisplatin (0.1-50 μM) (data not shown). […] The ASMase/ceramide pathway was activated by chemotherapeutic agents that belong to different classes of chemotherapeutic agents, such as: taxanes, topoisomerase inhibitors, and nucleoside analog metabolic inhibitors. Since such chemotherapy agents are characterized by distinct mechanisms of action in tumor cells, it is surprising that a group of such distinct agents converges on a common molecular (ASMase/ceramide) axis in endothelium. The present confirmation that distinct chemotherapeutic agents activate the ASMase/ceramide pathway permits the present inventors to take into account the results of experiments using single dose radiotherapy, which has been reported to activate the same pathway (Rao, S. S. et al., Axitinib sensitization of high Single Dose Radiotherapy. Radiotherapy and Oncology: Journal of the European Society for Therapeutic Radiology and Oncology 111, 88-93, doi:10.1016/j.radonc.2014.02.010 (2014)).
Gemcitabine was able to activate ASMase in cultured endothelial cells. […]

In experiment [2] the test system is ceramide. The experiment can be described thus: Ceramide generation (diacylglycerol kinase assay) in BAEC. It counts as cell-based, bovine. As to conditions: paclitaxel 100 nM; for Ceramide generation: etoposide 50 μM, cisplatin 0.1-50 μM. The method, then:
as §1
After treatment, cells were placed on ice, washed with cold PBS, and lipids were extracted by addition of scraped cells in methanol to an equal volume of chloroform and 0.6 volume of buffered saline/EDTA solution (135 mM NaCl, 4.5 mM KCl, 1.5 mM CaCl2), 0.5 mM MgCl2, 5.6 mM glucose, 10 mM HEPES pH 7.2, 10 mM EDTA). Lipids in the organic phase extract were dried under N2 and subjected to mild alkaline hydrolysis (0.1 N methanolic KOH for 1 hour at 37° C.) to remove glycerophospholipids. Samples were re-extracted, and the organic phase was dried under N2. Ceramide contained in each sample was resuspended in a 100 μl reaction mixture containing 150 μg of cardiolipin, 280 μM diethylenetriaminepentaacetic acid, 51 mM octyl-β-glucopyranoside (Calbiochem), 50 mM NaCl, 51 mM imidazole, 1 mM EDTA, 12.5 mM MgCl2, 2 mM dithiothreitol, 0.7% glycerol, 70 μM β-mercaptoethanol, 1 mM ATP, 10 μCi of [γ-^32P]ATP, 35 μg/ml Escherichia coli diacylglycerol kinase (Calbiochem) at pH 6.5. After 30 minutes at room temperature, the reaction was stopped by extraction of lipids with 1 ml of chloroform:methanol:1 N HCl (100:100:1), 170 μl of buffered saline solution (BSS) (135 mM NaCl, 1.5 mM CaCl2, 0.5 mM MgCl2, 5.6 mM glucose, and 10 mM HEPES (pH 72), and 30 μl of 100 mM EDTA. The lower organic phase was dried under N2. Ceramide-1 phosphate was resolved by thin-layer chromatography on silica gel 60 plates (Whatman) using a solvent system of chloroform:methanol:acetic acid (65:15:5, v/v/v) and detected by autoradiography, and incorporated ^32P was quantified by liquid scintillation counting. The level of ceramide was determined by comparison with a standard curve generated concomitantly of known amounts of ceramide.
To test the effect of chemotherapy on ASMase signaling and ceramide production, BAEC were treated with paclitaxel (100 nM) and ASMase activity was determined by radioenzymatic assay (Rotolo et al, infra) using [^14C-methylcholine] sphingomyelin (Amersham) as substrate (FIG. 1A). […] Ceramide generation was monitored using the diacylglycerol kinase assay (Stancevic et al. PLoS ONE 8, e69025, 2013). […]
(§2) To determine the generality of the results observed, experiments were carried out using an additional endothelial cell line, human coronary artery endothelial cells (HCAEC); experiments were also performed using a different chemotherapeutic agent. […] Next, HCAEC were treated with paclitaxel (100 nM) (data not shown) and etoposide (50 μM) (FIG. 1F), and ceramide generation was evaluated. […]

Experiment [3] deals with ceramide. The experiment can be described thus: Ceramide generation in HCAEC. It counts as cell-based, human. As to conditions: paclitaxel 100 nM, etoposide 50 μM, cisplatin 0.1-50 μM. The method, then:
HCAEC were obtained from Clonetics™ Coronary Artery Endothelial Cell Systems (Cambrex Bio Science Inc.). For HCAEC culturing and sub-culturing Clonetics cell system components were used: EBM®-2, Endothelial Cell Basal Medium-2 with addition of Clonetics EGM-2-MV SingleQuots containing growth supplements (Cambrex) (Biomedical Technologies, Inc.). For sub-culturing, monolayers were dissociated with Clonetics® Trypsin/EDTA solution for 2-3 min at 22° C. at a split ratio of 1:4 to expand the cell population for experiments. HCAEC cultures were maintained at 37° C. in 5% CO2 humidified incubators.
After treatment, cells were placed on ice, washed with cold PBS, and lipids were extracted by addition of scraped cells in methanol to an equal volume of chloroform and 0.6 volume of buffered saline/EDTA solution (135 mM NaCl, 4.5 mM KCl, 1.5 mM CaCl2), 0.5 mM MgCl2, 5.6 mM glucose, 10 mM HEPES pH 7.2, 10 mM EDTA). […] After 30 minutes at room temperature, the reaction was stopped by extraction of lipids with 1 ml of chloroform:methanol:1 N HCl (100:100:1), 170 μl of buffered saline solution (BSS) (135 mM NaCl, 1.5 mM CaCl2, 0.5 mM MgCl2, 5.6 mM glucose, and 10 mM HEPES (pH 72), and 30 μl of 100 mM EDTA. The lower organic phase was dried under N2. Ceramide-1 phosphate was resolved by thin-layer chromatography on silica gel 60 plates (Whatman) using a solvent system of chloroform:methanol:acetic acid (65:15:5, v/v/v) and detected by autoradiography, and incorporated ^32P was quantified by liquid scintillation counting. The level of ceramide was determined by comparison with a standard curve generated concomitantly of known amounts of ceramide.
as §2

Regarding `N.N.[Cl][Pt][Cl]` [cisplatin], in experiment [1] (etoposide 50 μM, cisplatin 0.1-50 μM, gemcitabine 100 nM time-course), the ASMase activation result was “failed to activate ASMase”. Also, the Ceramide generation result in experiment [2] was “failed to activate ASMase and result in generation of ceramide”; in experiment [3], “failed to activate ASMase and result in generation of ceramide”.
`CC(=O)O[C@H]1C(=O)[C@@]2(C)[C@H]([C@H](OC(=O)c3ccccc3)[C@]3(O)C[C@H](OC(=O)[C@H](O)[C@@H](NC(=O)c4ccccc4)c4ccccc4)C(C)=C1C3(C)C)[C@]1(OC(C)=O)CO[C@@H]1C[C@@H]2O` [paclitaxel]: in experiment [1] (paclitaxel 100 nM), the “ASMase activation continued for” value was found to be 30 min and the “Induction of ASMase activity, time after treatment” value was not above 5 min. Moreover, in experiment [2], the “Ceramide generation persisted for” value came to 30 min and the Ceramide generation entry is reported as “peaked within minutes”. In addition, the Ceramide generation entry in experiment [3] is recorded as “leads to the generation of ceramide”.
